How the values were obtained:
[1] = test system: human TNBC BM1 cells; assay: Relative CCL5 mRNA in BM1 cells treated with JQ1; assay type: cell-based; conditions: 300 nM JQ1, GAPDH loading control
Procedure: (§1) FIG. 21: Relative levels of HMGA2 (first bar of each set) and CCL5 (second bar of each set) are shown for the human triple-negative BM1 cell line (top) and the mouse basal-like breast cancer M6C cell line (bottom) treated with the bromodomain inhibitor JQ1, known to block HMGA2 activity. Relative levels of mRNA were calculated using the formula RQ=2-^˜˜CT with GAPDH as the loading control*0.05>p>0.01 ***0.001>p.
(§2) To overcome resistance to Maraviroc and increased CCL5 levels, the inventors are treating the tumor cells with JQ1, a bromodomain inhibitor which regulates HMGA2. HMGA2 is an upstream regulator of CCL5. Additionally, both genes expression levels are included in our prognostic signature. […] We plan to in the future test whether JQ1 in conjunction with Maraviroc are able to lead to a reduction in metastasis in a mouse model.

[2] = test system: mouse basal-like M6C cells; assay: Relative CCL5 mRNA in M6C cells treated with JQ1; assay type: cell-based; conditions: 300 nM JQ1, GAPDH loading control
Procedure: as §1, §2

[3] = test system: tumors in nude mice; assay: Treatment of tumor-bearing nude mice with A23 and/or Maraviroc (tumor weight, growth, intravasation); assay type: in vivo, mouse; conditions: agent alone; nude mice treated for 21 days starting at day 3
From the text: B) The corresponding growth curves for the treated mice.

[4] = test system: CCL5; conditions: tumor cells isolated from treated mice
Procedure: (§3) FIG. 20A-F: A) Final tumor weights shown for nude mice treated with the anti-Progranulin neutralizing antibody A23 alone or in combination with the CCR5 inhibitor Maraviroc for 21 days starting at day 3. B) The corresponding growth curves for the treated mice. Tumor volume is calculated as (π/6)*length2*width C) To measure the _rst step of metastasis we examine the relative number of tumor cells intravasating into the blood stream. This is calculated as the relative amount of human GAPDH compared to mouse Gapdh mRNA from cells isolated from blood after treatment. D) Tumor-associated macrophages were isolated from treated mice and qRT-PCR was performed to determine the relative amount of mRNA with Gapdh serving as the loading control; each set of four bars is data from the control, A23, Maraviroc, and A23+Maraviroc, respectively. E-F) Tumor cells were isolated from tumors stripped of mouse cells. RNA was collected and Relative CCL5 and Progranulin (GRN) were calculated with GAPDH as a loading control. *0.05>p>0.01 ** 0.01>p>0.001

[5] = test system: CCL7; conditions: TAMs isolated from treated mice
Procedure: as §3

Q: Which results are given for `Cc1sc2c(c1C)C(c1ccc(Cl)cc1)=N[C@@H](CC(=O)OC(C)(C)C)c1nnc(C)n1-2` [JQ1]?
A: CCL5 expression [1]: significant reduction; CCL5 expression [2]: significant reduction

Q: What does the source list for Maraviroc?
A: effectiveness of treatment in tumor-bearing mice [3]: not effective; CCL5 secreted by tumor cells in response to therapy [4]: more CCL5; CCL7 in the tumor-associated macrophages [5]: more CCL7

Source: patent US20180104232A1, “METHODS FOR DETERMINING PROGNOSIS FOR BREAST CANCER PATIENTS” (The University of Chicago, priority 2015, published 2018)
